Data published in patent US20140234359A1, “PLANT VIRAL VACCINES AND THERAPEUTICS” (priority 2011, published 2014).

Tested on: T-24 human bladder cancer cells
Assay: Cell death of T-24 cells after anti-viral treatment, flow cytometry
Type: cell-based
Conditions: 10 μM efavirenz, 48 hours, vs methanol control
Method: T-24 human bladder cells were grown in a 12 well plate in a total volume of 2 mL of 10% FBS complete RPMI. Cells were left untreated or treated with 2 μL of methanol (Sigma-Aldrich) or treated with 10 μM efavirenz (Toronto Research Chemicals Cat# E425000). Cells were grown in CO2 incubator at 37° C. for 48 hours. After 48 hours, cells were harvested and counted using trypan blue on a hemocytometer.
The human bladder cancer T24 cell line was used to determine the effects of and anti-viral treatment on human tumor cells infected with plant virus. The T24 cells were grown in culture and then treated or not with the anti-reverse transcriptase drug, efavirenz, for twenty four or forty eight hours. Cell death assays were performed in triplicate. […] It is expected that treatment of the bladder cancer cells with a TLR activator to activate new virus replication in combination with the anti-viral drug will be useful in increasing cell death further. FIG. 2a depicts flow cytometer results on T-24 Human bladder cancer cells treated with efavirenz or methanol control for 48 hours. FIG. 2b is a bar graph depiction of the data.

## O=C1Nc2ccc(Cl)cc2[C@@](C#CC2CC2)(C(F)(F)F)O1 [efavirenz]
  cell death: increased death
Listed as Efavirenz
  cell death: effective in killing a percentage of the cells
